Experimental data as given in the supplement of paper PMC10307832.

How the values were obtained:
Experiment in all cases: relative viability (nuclei count vs DMSO), 5 days (fraction); higher = more cells survive
Vismodegib + Navitoclax = compound: CS(=O)(=O)c1ccc(C(=O)Nc2ccc(Cl)c(-c3ccccn3)c2)c(Cl)c1 [Vismodegib] + CC1(C)CCC(c2ccc(Cl)cc2)=C(CN2CCN(c3ccc(C(=O)NS(=O)(=O)c4ccc(N[C@H](CCN5CCOCC5)CSc5ccccc5)c(S(=O)(=O)C(F)(F)F)c4)cc3)CC2)C1 [Navitoclax] (partner 0.5 µM)
Outline: (§1)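 Lung cancer cell lines were pin-tool dosed in 1536-well plates on the day after seeding, with either a lone drug or a fixed anchor-drug dose plus five library-drug doses (not always all listed) in √10 steps. Nuclei were counted on 4× images after 5 days. Relative viability is the ratio of treated-well to vehicle-well nuclei counts, with each value a median of duplicate plates.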

Ruxolitinib + AZD7762 = compound: N#CC[C@H](C1CCCC1)n1cc(-c2ncnc3[nH]ccc23)cn1 [Ruxolitinib] + NC(=O)Nc1cc(-c2cccc(F)c2)sc1C(=O)N[C@H]1CCCNC1 [AZD7762] (partner 0.2 µM)
Outline: as §1

Ruxolitinib + Decitabine = compound: N#CC[C@H](C1CCCC1)n1cc(-c2ncnc3[nH]ccc23)cn1 [Ruxolitinib] + Nc1ncn([C@H]2C[C@H](O)[C@@H](CO)O2)c(=O)n1 [Decitabine] (partner 2 µM)
Outline: as §1

Ruxolitinib + Vorinostat = compound: N#CC[C@H](C1CCCC1)n1cc(-c2ncnc3[nH]ccc23)cn1 [Ruxolitinib] + O=C(CCCCCCC(=O)Nc1ccccc1)NO [Vorinostat] (partner 1 µM)
Outline: as §1

Cell Line | relative viability (Vismodegib + Navitoclax; first compound 0.08 µM) | relative viability (Vismodegib + Navitoclax; first compound 0.253 µM) | relative viability (Vismodegib + Navitoclax; first compound 0.8 µM) | relative viability (Vismodegib + Navitoclax; first compound 2.53 µM) | relative viability (Vismodegib + Navitoclax; first compound 8 µM) | relative viability (Ruxolitinib + AZD7762; first compound 0.08 µM) | relative viability (Ruxolitinib + AZD7762; first compound 0.253 µM) | relative viability (Ruxolitinib + AZD7762; first compound 0.8 µM) | relative viability (Ruxolitinib + AZD7762; first compound 2.53 µM) | relative viability (Ruxolitinib + AZD7762; first compound 8 µM) | relative viability (Ruxolitinib + Decitabine; first compound 0.08 µM) | relative viability (Ruxolitinib + Decitabine; first compound 0.253 µM) | relative viability (Ruxolitinib + Decitabine; first compound 0.8 µM) | relative viability (Ruxolitinib + Decitabine; first compound 2.53 µM) | relative viability (Ruxolitinib + Decitabine; first compound 8 µM) | relative viability (Ruxolitinib + Vorinostat; first compound 0.08 µM) | relative viability (Ruxolitinib + Vorinostat; first compound 0.253 µM) | relative viability (Ruxolitinib + Vorinostat; first compound 0.8 µM) | relative viability (Ruxolitinib + Vorinostat; first compound 2.53 µM) | relative viability (Ruxolitinib + Vorinostat; first compound 8 µM)
NCI-H1915 | 0.773 | 0.805 | 0.747 | 0.729 | 0.759 | 0.687 | 0.681 | 0.753 | 0.572 | 0.593 | 0.262 | 0.278 | 0.275 | 0.237 | 0.233 | 0.467 | 0.488 | 0.565 | 0.461 | 0.332
HCC-15 | 0.675 | 0.678 | 0.689 | 0.665 | 0.676 | 1.09 | 0.878 | 1.23 | 1.12 | 1.17 | 0.677 | 0.553 | 0.7 | 0.55 | 0.48 | 0.903 | 0.862 | 0.864 | 0.741 | 0.776
EKVX | 0.664 | 0.901 | 0.999 | 0.899 | 0.914 |  | 0.77 | 0.848 | 0.799 | 0.698 |  | 0.3 | 0.35 | 0.337 | 0.414 | 0.57 | 0.744 | 0.719 | 0.628 | 0.588
PC-14 | 0.967 | 0.974 | 1.1 | 0.946 | 0.965 |  | 0.356 | 0.363 | 0.347 | 0.359 |  | 0.282 | 0.207 | 0.153 | 0.156 |  | 0.788 | 1.05 | 0.658 | 0.652
NCI-H1355 | 0.931 | 1.06 | 0.863 | 0.913 | 0.952 | 0.729 | 0.735 | 0.878 | 0.604 | 0.668 | 0.353 | 0.376 | 0.398 | 0.326 | 0.358 | 0.69 | 0.564 | 0.691 | 0.6 | 0.536
HOP-62 | 0.985 | 1.06 | 0.915 | 0.819 | 1.07 | 0.437 | 0.796 | 0.564 | 0.627 | 0.704 | 0.197 | 0.258 | 0.227 | 0.208 | 0.19 | 0.606 | 0.59 | 0.688 | 0.594 | 0.685
NCI-H3122 | 1.01 | 1.04 | 0.994 | 0.984 | 1.02 | 0.98 | 1.07 | 1.05 | 0.943 | 0.891 | 0.47 | 0.387 | 0.429 | 0.302 | 0.389 | 0.886 | 1.12 | 1.13 | 0.962 | 1.02
NCI-H1437 | 0.945 | 1.08 | 1.09 | 1.07 | 1.1 | 1.18 | 1.11 | 1.19 | 1.04 | 0.925 | 0.716 | 0.623 | 0.631 | 0.634 | 0.603 | 1.14 | 1.04 | 1.1 | 0.859 | 0.627
BEN | 0.0646 | 0.062 | 0.0698 | 0.0746 | 0.0684 | 0.777 | 0.655 | 0.793 | 0.813 | 0.827 | 0.5 | 0.699 | 0.816 | 0.592 | 0.773 | 0.524 | 0.557 | 0.653 | 0.519 | 0.586
NCI-H2087 | 0.952 | 0.969 | 0.961 | 0.954 | 0.943 | 1.19 |  | 1.39 | 1.21 | 0.956 | 0.316 |  | 0.35 | 0.189 | 0.286 | 0.868 |  | 0.752 | 0.686 | 0.705
NCI-H2347 | 0.735 | 0.821 | 0.766 | 0.763 | 0.792 | 0.8 | 0.89 | 0.766 | 0.769 | 0.877 | 0.614 | 0.602 | 0.65 | 0.563 | 0.62 | 0.68 | 0.546 | 0.568 | 0.566 | 0.622
NCI-H838 | 1.1 | 1.23 | 1.11 | 1.21 | 1.18 | 0.925 | 0.874 | 0.87 | 0.776 | 0.721 | 0.466 | 0.437 | 0.489 | 0.351 | 0.28 | 0.734 | 0.669 | 0.685 | 0.535 | 0.349
LXF-289 | 0.919 | 0.931 | 0.935 | 0.917 | 0.917 | 1.06 | 1.15 | 1.11 | 1.04 | 1 | 0.369 | 0.426 | 0.353 | 0.363 | 0.371 | 0.744 | 0.818 | 0.793 | 0.714 | 0.705
LC-2-ad | 0.573 | 0.447 | 0.422 | 0.522 | 0.553 | 0.875 | 0.865 | 0.821 | 0.792 | 0.693 | 0.776 | 0.936 | 0.784 | 0.694 | 0.604 | 0.798 | 0.715 | 0.728 | 0.698 | 0.64
NCI-H2085 | 1.11 | 1.06 | 1.12 | 1.06 | 1.12 | 1.08 | 1.1 | 1.01 | 0.921 | 0.984 | 0.598 | 0.531 | 0.624 | 0.515 | 0.496 | 0.865 | 0.802 | 0.891 | 0.667 | 0.695
